Entries after “also recorded” stand apart in the source; their conditions may differ.
How the values were obtained:
[1] = system: HT-29 human colon cancer cells; assay: Cytotoxicity against HT-29 cells
Experimental: The cytotoxicity of the test compounds was screened against HT-29 cells by a previously reported procedure (Ren Y et al. J. Nat. Prod 2011, 74, 1117-1125). Paclitaxel and etoposide were used as positive controls.
All arylnaphthalene lignans isolated from P. poilanet in the present study and their semi-synthetic analogues were evaluated for their cytotoxicity against HT-29 human colon cancer cells, using paclitaxel as the positive control (Table 6) (Ren Y et al. J. Nat. Prod 2011, 74, 1117-1125).

[2] = Solubility in aqueous solutions; type: physicochemical
[3] = biological target: topo IIα (Homo sapiens, UniProt P11388); assay: Topoisomerase II assay (DNA cleavage/relaxation); type: biochemical; conditions: 100 μM test compound
Source text: The formation of linear DNA was detected by separating the SDS-treated reaction products using ethidium bromide gel electrophoresis and quantified by accounting for the relationship between fluorescence and relative band intensity for open circular (OC), linear (LNR), supercoiled (SC), and relaxed (RLX) configurations of DNA.
Topoisomerase II Assay. […] The formation of linear DNA was detected by separating the SDS-treated reaction products using ethidium bromide gel electrophoresis by a modification of a previously described procedure (Hasinoff B B et al. Mol. Pharmacol. 2005, 67, 937-947). In this system, topo II-mediated catalytic conversion of supercoiled pBR322 DNA to the “relaxed” form of plasmic' DNA can also be observed. A 20 μL cleavage assay reaction mixture contained 250 ng topo IIα protein, 160 ng pBR322 plasmid DNA (NEB, Ipswich, Mass.), 1.0 mM ATP in assay buffer (10 mM Tris-HCl (pH 7.5), 50 mM KCl, 50 mM NaCl, 0.1 mM EDTA, 5 mM MgCl2, 2.5% glycerol), and 100 μM of test compounds or DMSO solvent, as indicated. Assay buffer (17 μL) and test compound/DMSO (1 μL) were mixed and allowed to sit at room temperature for 30 min after which 2 μL of topo IIα was added to initiate the reaction. Tubes were incubated at 37° C. for 15 min, and then quenched with 1% (v/v) SDS/10 mM disodium EDTA/200 mM NaCl. The mixture was treated subsequently with 0.77 mg/mL proteinase K (Sigma) at 55° C. for 60 min to digest the protein, and DNA bands were separated by electrophoresis (18 h at 2 V/cm) on an agarose gel (1.3% w/v) containing 0.7 μg/mL ethidium bromide in TAE buffer pH 8.0 (40 mM Tris base, 0.114% (v/v) glacial acetic acid, 2 mM EDTA). The DNA in the gel was imaged by its fluorescence on a Chemi-Doc XRS+ imager (Bio-Rad, Hercules, Calif.). Linear DNA was quantified by accounting for the relationship between fluorescence and relative band intensity for open circular (QC), linear (LNR), supercoiled (SC), and RLX (relaxed) configurations of DNA (Projan S J et al. Plasmid 1983, 9, 182-190), then calculating % of LNR from the total DNA content in each lane.

[4] = system: NF-κB p65; assay: Immunoblotting of p65 and p-p65 in NK cells; type: cell-based, human; conditions: 10 μM TPCK, 10 μM PL-C and IL-12, 18 h
Experimental: (A) Purified primary human NK cells were treated with 5 and 10 μM PL-C for 18 h. The cells were harvested and lysed for immunoblotting using p65 and p-p65 Abs. β-Actin immunoblotting was included as the internal control. Data shown are for treatment with PL-C alone (top panel) or in combination with IL-12 (10 ng/mL) (middle panel) or IL-15 (100 ng/mL) (bottom panel) and are the representative plots of four donors with similar results. Numbers under each lane represent quantification of p-p65 or p65 via densitometry, after normalizing to β-actin. (B) NKL cells were treated, and data are presented as described in (A). Data from one of three independent experiments with similar results are shown. (C) Purified primary human NK (left panel) or NKL cells (right panel) were cotreated with 10 μM PL-C and IL-12 (10 ng/mL) in the presence or absence of the NF-κB inhibitor TPCK (10 μM) for 18 h. Supernatants were assayed for IFN-γ secretion by ELISA (top panel), and cells were harvested and lysed for immunoblotting of p-p65 (bottom panel). Representative data from one of three donors with the similar data (left panel) and the summary of three independent experiments with similar results (right panel) are shown. **p<0.01. Error bars represent SD.
Immunoblotting. Immunoblotting was performed as described previously (Yu J et al. Immunity 2006, 24, 575-590; Yu J et al. Blood 2010, 115, 274-281). […]

[5] = system: human primary NK cells; assay: IFN-γ production by NK cells (intracellular flow cytometry, ELISA); type: cell-based; conditions: 10 μM TPCK, 10 μM PL-C and IL-12, 18 h
Experimental: (A) Chemical structure of PL-C (phyllanthusmin C, 4), (9) Healthy donor PBMCs (left panel) or enriched NK cells (right panel) were treated with DMSO vehicle control or 10 μM PL-C for 18 h in the presence of […] (10 ng/mL) or IL-15 (100 ng/mL). The cells were harvested and analyzed by intracellular flow cytometry to determine the frequency of IFN-γ^+ cells in CD56^+CD3^− NK cells (n=8 for PBMC and n=5 for enriched NK). (C) Highly purified (≧99.5%) human primary NK cells were treated with 10 μM PL-C for 18 h to determine the levels of IFN-γ secretion by ELISA. IFN-γ secretion from treatment with PL-C alone (left panel) or in combination with IL-12 (10 ng/mL, middle panel) or IL-15 (100 ng/mL, right panel) is shown. (D) Cells were treated as described in (C) and harvested at 12 h, IFNG mRNA expression was assessed by real-time RT-PCR, and the relative IFNG mRNA expression of each treatment was normalized to untreated vehicle control in the same donor. Data are shown as mean±SEM (n=6 in each treatment; error bars represent SEM). *p<0.05, **p<0.01, which denote statistical comparison between the two marked treatment groups (B-D). (E) Highly purified (≧99,5%) primary human NK cells were treated with 10 μM. PL-C in combination with various concentrations of IL-12 (10, 1, and 0.1 ng/mL) or IL-15 (100, 10, and 1 ng/mL) for 24 h to determine the levels of IFN-γ secretion. Representative data from one of three donors with the similar data are shown. *p<0.05, **p<0.01, which denote statistical comparison between the two marked treatment groups and are calculated from data of all tested donors. Error bars represent SD. […]
Isolation of PBMCs and NK cells. […] The purity of enriched NK cells was ≧80% assessed by flow cytometric analysis after staining with CD56-allophycocyanin and CD3-FITC Abs (BD Bio-sciences, San Jose, Calif.). […] The purity of magnetic bead-purified NK cells was ≧99.5%, as determined by the aforementioned flow cytometric analysis. […]

topo IIα, sequence (P11388 whole entry): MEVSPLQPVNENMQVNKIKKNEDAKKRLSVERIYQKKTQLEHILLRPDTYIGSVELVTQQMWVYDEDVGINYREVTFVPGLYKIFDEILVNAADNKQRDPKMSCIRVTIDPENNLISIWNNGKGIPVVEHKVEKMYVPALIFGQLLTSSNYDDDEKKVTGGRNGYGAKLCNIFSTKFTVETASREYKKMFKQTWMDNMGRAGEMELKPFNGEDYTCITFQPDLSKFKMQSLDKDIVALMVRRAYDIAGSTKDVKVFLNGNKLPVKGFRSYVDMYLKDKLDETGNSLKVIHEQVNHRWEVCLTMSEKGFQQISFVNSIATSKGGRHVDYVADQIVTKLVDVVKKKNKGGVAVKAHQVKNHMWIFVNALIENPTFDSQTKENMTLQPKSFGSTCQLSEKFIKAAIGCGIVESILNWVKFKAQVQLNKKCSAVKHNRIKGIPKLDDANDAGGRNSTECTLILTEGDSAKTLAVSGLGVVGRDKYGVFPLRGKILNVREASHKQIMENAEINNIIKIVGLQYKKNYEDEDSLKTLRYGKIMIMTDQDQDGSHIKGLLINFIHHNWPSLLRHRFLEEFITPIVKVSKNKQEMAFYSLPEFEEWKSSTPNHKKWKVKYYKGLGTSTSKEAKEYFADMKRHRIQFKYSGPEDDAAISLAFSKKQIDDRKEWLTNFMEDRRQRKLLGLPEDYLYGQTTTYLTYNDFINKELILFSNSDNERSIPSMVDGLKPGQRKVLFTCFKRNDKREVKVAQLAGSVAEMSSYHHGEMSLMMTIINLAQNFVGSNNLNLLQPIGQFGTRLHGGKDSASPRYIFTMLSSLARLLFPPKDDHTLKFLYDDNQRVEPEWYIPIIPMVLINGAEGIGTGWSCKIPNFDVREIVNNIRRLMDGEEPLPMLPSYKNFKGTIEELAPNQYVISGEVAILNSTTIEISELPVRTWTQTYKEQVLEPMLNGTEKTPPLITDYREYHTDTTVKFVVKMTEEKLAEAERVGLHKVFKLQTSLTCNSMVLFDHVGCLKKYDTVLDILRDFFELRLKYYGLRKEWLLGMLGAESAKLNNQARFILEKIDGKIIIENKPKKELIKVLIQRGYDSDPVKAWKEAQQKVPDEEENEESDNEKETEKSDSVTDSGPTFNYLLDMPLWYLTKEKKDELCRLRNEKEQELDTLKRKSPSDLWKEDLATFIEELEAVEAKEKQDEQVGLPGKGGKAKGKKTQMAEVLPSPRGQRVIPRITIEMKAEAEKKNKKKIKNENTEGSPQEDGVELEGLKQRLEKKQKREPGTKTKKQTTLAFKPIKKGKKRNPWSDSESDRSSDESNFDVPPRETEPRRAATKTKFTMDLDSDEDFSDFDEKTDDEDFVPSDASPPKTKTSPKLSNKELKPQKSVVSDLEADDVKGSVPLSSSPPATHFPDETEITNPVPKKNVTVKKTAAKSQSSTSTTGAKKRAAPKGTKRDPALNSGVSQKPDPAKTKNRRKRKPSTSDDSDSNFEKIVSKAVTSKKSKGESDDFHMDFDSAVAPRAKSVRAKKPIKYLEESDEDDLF

Compound	EC50 ([1]; read-out: ED50, toxicity towards HT-29 cells, natural samples) [µM]	IC50 ([1]; read-out: IC50, cytotoxicity toward HT-29 cells) [µM]	solubility in aqueous solutions [2]	topo IIα inhibition (in words) [3]	effect on PL-C-induced p65 phosphorylation [4]	effect on PL-C-induced IFN-γ secretion [5]
COc1cc2c(O[C@@H]3OC[C@H](OC(C)=O)[C@H](OC(C)=O)[C@H]3OC(C)=O)c3c(c(-c4ccc5c(c4)OCO5)c2cc1OC)C(=O)OC3 [Compound 7, 7-O-((2,3,4-tri-O-acetyl)-α-L-arabinopyranosyl) diphyllin]	0.11	0.11	insoluble in aqueous solutions	not topo Ha inhibitors; also recorded: not topo IIα inhibitors		
N-tosyl-L-phenylalanine chloromethyl ketone [TPCK, reference compound]					inhibited PL-C-induced p65 phosphorylation	inhibition of PL-C-induced IFN-γ secretion
